Like-named read-outs stand apart in the source and are kept apart here.
Key:
[1] = system: testicular cell co-culture (C18-4, TM4, TM3); assay: BrdU incorporation (DNA synthesis) and cell cycle HCA; assay type: cell-based, mouse
Description: (§1) BrdU incorporation, cell fixation, BrdU, and DNA staining followed the previously published protocol (Liang, et al., 2017b). the determination of DNA damage responses and cytoskeleton analysis was conducted after cell fixation. The cells were then permeabilized by a 0.1% Triton X-100 in PBS, and then incubated with a mouse-anti phosphor-histone H2AX (Ser139) (γ-H2AX) overnight at 4° C. […] Finally, prior to acquiring the images, the cells were stained with Alexa Fluor 488 Phallodin for 30 minutes to stain the F-actin (Liang, et al., 2017)
(§2) Multi-Channel images were analyzed using HCS Studio™2.0 TargetActivation BioApplication. Multiple parameters of nuclei were characterized in HCA, including nuclei number, nuclear area, shape, and total DNA intensity. Nuclear shape measurements included P2A, a ratio of the nuclear perimeter squared to 4it*nucleus area (perimeter^2/4π*enuclear area) to evaluate nuclear smoothness, and LWR, a ratio of the nuclear length to width, to measure nuclear roundness. For a fairly round and smooth object, the values for P2A and LWR are around 1.0. Total intensity was defined as total pixel intensity within a cell in the respective channel. The total intensities of BrdU, γ-H2AX, and F-actin of the individual cells were also quantified. With forty-nine 20× images acquired from each well, at least 1,000 cells were analyzed per well, and single-cell based data were extracted for further analysis. The experiments were performed with at least four biological replicates and repeated twice.
(§3) Data were presented as mean±standard deviation (SD).

[2] = NR dye uptake assay, co-cultures treated with BPA and analogs (Example 2); settings: mouse
Description: (§4) The testicular cell co-culture model was established as reported in Example 1 Briefly, mouse spermatogonial cell line C18-4 was established via germ cells isolated from the testes of 6 day old Balb/c mice. […] Mouse Leydig (TM3) and Sertoli (TM4) cell lines were purchased from ATCC, and these cells were isolated from prepubertal mouse gonads. C18-4 cells were maintained in DMEM composed of 5% FBS, and 100 U/ml streptomycin and penicillin in a 33° C., 5% CO2 humidified environment in a sub-confluent condition, and were passaged every 3-4 days TM3 and TM4 cells were cultured in DME/F12 composed of 1.25% FBS, 2.5% horse serum, and 100 U/ml streptomycin and penicillin at 37° C., 5% CO2 in a sub-confluent condition, and were passaged every 2-3 days. When the cells reached 70-80% confluence, a total of 1.5×10^4 cells per well were inoculated into a 96-well plate. […] The co-cultures were maintained in DMEM composed of 2.5% Nu-serum, and 100 U/ml streptomycin and penicillin in a 33° C., 5% CO2 humidified environment.
(§5) Cell viability was determined through the Neutral Red uptake assay, which is based on the ability of viable cells to incorporate NR dye into their lysosomes, while the dye is not retained if the cell dies (Repetto et al., 2008). […] The vehicle controls were set as the co-cultures treated with the vehicle (0.05% DMSO) After the treatments, the culture medium was replaced by fresh medium containing NR (50 μg/ml). After a 3 h incubation period, the co-cultures were washed with phosphate buffered saline (PBS), and the NR dye was eluted with 100 μl of a 0.5% acetic acid/50% ethanol solution. The plate was then gently shaken, and absorbance values were measured at 540 nm with a Synergy HT microplate reader (BioTek, VT). Cell viability was presented as a percentage of the mean of vehicle controls after subtracting background readings.
(§6) The data obtained from the HCS Studio·8 2.0 TargetActivation BioApplication, CellProfiler and CellProfiler Analyst were exported and further analyzed using the JMP statistical analysis package (SAS Institute, NC). To remove cell clumps, nuclei with areas larger than […] were excluded. […] For intra-plate normalization, data were normalized to the overall scaling factors, which was the mean of medians of the vehicle controls in each plate. The single cell-based data were averaged for the well-based condition. BrdU-positive cells were set by the total intensity of BrdU in the control at over 25,000 pixels. γ-H2AX positive cells were set by the total intensity of γ-H2AX in the control at over 120,000 pixels. The median lethal concentrations (LC50) were calculated using a nonlinear regression curve fit on GraphPad Prism 5 (San Diego, Calif.). To examine the correlation between the cytoskeleton and DNA damage responses in multinucleated cells, the Spearman correlation analysis was conducted between the total intensity of F-actin and γ-H2AX for 24, 48, and 72 h using cell-based data. Data were presented as mean±standard deviation (SD). Statistical significance was determined using one-way ANOVA followed by Tukey-Kramer all pairs comparison. The p-value less than 0.05 denoted a significant difference compared to the vehicle control (*).

[3] = system: testicular cell co-culture (C18-4, TM4, TM3); assay: as above
Description: as §4, §5, §6

[4] = system: testicular cell co-culture (C18-4, TM4, TM3); assay: HCA of F-actin cytoskeleton and γ-H2AX DNA damage response; assay type: cell-based, mouse; settings: for effect on F-actin cord-like structures, in words: FIG. 14A: BPA and BPS 100 μM, BPAF 5 and 15 μM, TBBPA 15 μM, 48 h; for doses inducing DNA damage response (γ-H2AX): co-culture model; for γ-H2AX expression, in words: co-cultures, up to 100 μM
Description: as §1
Multi-channel images were then automatically acquired using an Arrayscan™ VTI HCS reader (Thermo Scientific, MA) with the HCS Studio 2.0 Target Activation BioApplication module. Forty-nine fields per well were acquired at 20× and 40× magnification using a Hamamatsu ROCA-ER digital camera in combination with a 0.63× coupler and Carl Zeiss microscope optics in auto-focus mode. Image smoothing was conducted in order to reduce object fragmentation prior to the primary object identification that takes place in the first channel. Channel one (Ch1) applied the BGRFR 386_23 for Hoechst 33342 that was used for auto-focus, object identification, and segmentation. The border objects were then excluded. Channel two (Ch2) applied applied the BGRFR 549_15, which identified the BrdU staining and BGRFR 485_20 to identify the F-actin staining. BGRFR 650_13 was applied in Channel three (Ch3) and identified the γ-H2AX staining.
as §2, §3

[5] = system: Spermatogonial cells (C18-4); assay: cells; assay type: cell-based, mouse; settings: Mus musculus, read-out: IC50
[6] = system: Sertoli cells (TM4); assay: cells; assay type: cell-based, mouse; settings: Mus musculus, read-out: IC50
[7] = system: testicular co-culture: spermatogonial cells (C18-4), Sertoli cells (TM4), Leydig cells (TM3); settings: co-culture; for in vitro call as reproductive toxicant: 48 h, based on cluster analysis; for effect on cell viability (NR uptake), in words: 48 h treatment, FIG. 6

SMILES	CC50 at 72 h [2] [µM]	doses significantly decreasing cell viability ([3]; 24, 48, and 72 h) [µM]	effect on F-actin cord-like structures, in words [4]	doses inducing DNA damage response (γ-H2AX) [4] [µM]	IC50 ([5]; 24 h) [µM]	IC50 ([5]; 48 h) [µM]	IC50 ([6]; 24 h) [µM]	IC50 ([6]; 48 h) [µM]	in vitro call as reproductive toxicant [7]	doses significantly decreasing cell viability ([3]; 24 h) [µM]	γ-H2AX expression, in words [4]	effect on cell viability (NR uptake), in words [7]	also measured
CC(C)(c1cc(Br)c(O)c(Br)c1)c1cc(Br)c(O)c(Br)c1 [TBBPA, 2,2′,6,6′-Tetrabromo-4,4′-isopropylidenediphenol]	16.8	≥ 25	dramatically perturbed these structures	15	74.9	55	60	38	positive	–	–	–	doses with significant decrease in BrdU-positive cells ([1]; 48 and 72 h): 15 µM
CC(C)(c1ccc(O)cc1)c1ccc(O)cc1 [BPA, 4,4′-(propane-2,2-diyl) diphenol]	150	–	dramatically perturbed these structures	–	190	184	89	79	–	≥ 200	did not induce γ-H2AX expression	significant dose-dependent decrease of cell viability	doses with significant decrease in BrdU-positive cells ([1]; 24 and 48 h): 100 µM; doses with significant increase in F-actin total intensity ([4]; 72 h): 100 µM
O=S(=O)(c1ccc(O)cc1)c1ccc(O)cc1 [BPS, 4,4′-Sulfonyldiphenol]	–	–	induced no notable changes	–	505	357	211	74.3	positive	≥ 400	did not induce γ-H2AX expression	significant dose-dependent decrease of cell viability	doses with significant decrease in BrdU-positive cells ([1]; 24 h): 100 µM; doses with significant increase in F-actin total intensity ([4]; 24 and 48 h): 100 µM
Oc1ccc(C(c2ccc(O)cc2)(C(F)(F)F)C(F)(F)F)cc1 [BPAF, 4,4′-(Hexafluoroisopropylidene)diphenol]	8.5	≥ 5	dramatically perturbed these structures	≥ 5	70	58.5	55.4	22.3	positive	–	–	–	HCA-based cell cycle analysis, in words [1]: significantly induced G2/M phase arrest; dose inducing BrdU-positive cells ([1]; 72 h): 10 µM; doses with significant decrease in BrdU-positive cells ([1]; 72 h): 15 µM; toxicity ranking among BPA and analogs ([3]; co-culture model, followed by TBBPA, BPA, and BPS): highest toxicity

— patent publication US20180371408A1, “CELL CULTURES AND METHODS OF USE” (priority 2017, published 2018)
